Tests used:
MB model of glaucoma = assay: IOP time course after single eye drop in MB model of glaucoma; format: in vivo, mouse; settings: single dose eye drop
Description: Specifically, microbeads (MBs) were injected into the anterior chamber of a mouse eye as described in Example 2 with PBS-injected eyes used as controls. Compound 1 (10 mg/kg body weight) (or PBS vehicle) was injected intraperitoneally (IP). […] IOP was measured in mice between 10:00 AM and 1:00 PM with the TonoLab rebound tonometer (Colonial Medical Supply, Franconia, NH/Tyolat, Helsinki, Finland). Mice were sedated with IP injection of Avertin with final amount calculated by weight (e.g., 0.5 ml for 21-24 g animals). Animals were placed on a jack stand platform and the tonolab was clamped on a ring stand and centered onto the mid-cornea. During measurements animal were neither restrained nor touched. Each eye was measured twenty consecutive times, the highest and lowest values were discarded and the values were averaged.
FIG. 9 illustrates the short-term effects of a single dose of Compound 1 (eye drop) in the MB model of glaucoma. IOP was measured as described in Example 3 at the indicated time points after receiving a drop of Compound 1. Compound 1 reduced IOP beginning at 1 hour after dosing and continued through 6 hours after dosing.
FIG. 10 illustrates a time course of Compounds 1, 2, 5 and Compound 2-HCl as well as a positive control compound, timolol, with regard to inhibition of IOP. The experiment was conducted as described in Example 9. Each of the TRPV4 antagonists reduced IOP with a similar time course. Specifically, Compounds 1, 2, 5 and Compound 2-HCl reduced IOP for at least 6 hours after dosing.
FIG. 11 illustrates a time course of Compound 2-HCl activity. The experiment was conducted as described in Example 9. […] 2
FIG. 12 illustrates a comparison of the time course of Compound 2-HCl and Compound 5. The experiment was conducted as described in Example 9.

retinal ganglion cells = assay: RGC density (TuJ-1+, CFP+) in retinal wholemounts of MB-injected mice; format: in vivo, mouse
Description: FIG. 2 confirms that the mouse model for glaucoma causes RGC degeneration. Specifically, microbeads (MBs) were injected into the anterior chamber of a mouse eye. The MBs increase intraocular IOP above 15 mm Hg by blocking outflow of the aqueous humor within the anterior chamber of the eye. MBs were reinjected as needed to maintain a high IOP, typically one injection every two weeks. Contralateral eyes were injected intraocularly with the vehicle PBS (phosphate buffered saline) as controls. […] IOP levels were measured at least twice weekly before and after intraocular injections. After injections, mice recovered for 48 hours before IOP measurements resumed. Following 4 or 8 weeks of IOP elevation, mice were intracardially perfused with 4% paraformaldehyde in 1× PBS to fix the retinas. Retinas were then removed and processed for immunohistochemistry (IHC). Whole retinas were rinsed with 1× PBS three times at room temperature then incubated in blocking buffer (1× PBS+1% BSA). […] The density of RGCs was imaged with a confocal microscope (Zeiss LSM 510) and quantified by counting NeuN-, CFP- and/or Tuj-1-labeled somata in the RGC layer of the retinal wholemount preparation. […]
RGD density was quantified in retinas isolated from TuJ-1^+ mice and transgenic Thy1-CRP^+ transgenic mice that had been injected with either MBs or vehicle (PBS) then dosed with either compound 1 or vehicle (PBS). […] TuJ-1 was quantified by immunohistochemistry using a Tuj-1-specific antibody conjugated to a fluorescent Alexa 488 or Alexa 594 secondary antibody. […] For fluorescence immunocytochemistry, retinal wholemounts were washed in PBS, then placed for 30 min. to 1 hour in blocking solution (10 ml PBS, 30 μL Triton-X 100, 100 mg bovine serum albumin, 100 μL 10% w/v Na azide solution) in OCT (Ted Pella, Redding, Pa.). […]

SMILES: Cc1c(C(=O)Nc2cccc(C(F)(F)F)c2)cc(-c2ccccc2)n1CCCN1CCOCC1 [Compound 1, N-(3-(trifluoromethyl)phenyl)-2-methyl-1-(3-morpholinopropyl)-5-phenyl-1H-pyrrole-3-carboxamide]
- time after dosing at which IOP reduction begins (MB model of glaucoma): 1 h
- TuJ-1+ cells in alpha, beta and omega regions (retinal ganglion cells; MB-injected mice): rescues RGCs across all regions of the retina
- density of RGCs (TuJ-1+ and Thy1:CFP+ cells) (retinal ganglion cells; MB-injected mice, 8 weeks of increased IOP): RGC loss was rescued
- CFP+ cells in alpha, beta and omega regions (retinal ganglion cells; Thy1-CFP transgenic mice, MB-injected): rescues RGCs across all regions of the retina

— US20150133411A1, “COMPOUNDS WITH TRPV4 ACTIVITY, COMPOSITIONS AND ASSOCIATED METHODS THEREOF” (The University of Utah Research Foundation, priority 2012, published 2015)
